From ChEMBL document CHEMBL4265900, “Discovery of the bifunctional modulator of angiotensin II type 1 receptor (AT1R) and PPARγ derived from the AT1R antagonist, Fimasartan” (Bioorg Med Chem Lett, 2018)
pIC50: −log10 of the molar value. Active and inactive are the calls of the source. The rule behind the calls is not given here.

How the values were obtained:
[1] = molecular target: T1, Type-1 angiotensin II receptor (Homo sapiens) (UniProt P30556); assay: Antagonist activity at type-1 angiotensin 2 receptor (unknown origin) at 20 nM by calcium mobilizing assay relative to fimasartan; format: functional
T1 sequence (whole entry): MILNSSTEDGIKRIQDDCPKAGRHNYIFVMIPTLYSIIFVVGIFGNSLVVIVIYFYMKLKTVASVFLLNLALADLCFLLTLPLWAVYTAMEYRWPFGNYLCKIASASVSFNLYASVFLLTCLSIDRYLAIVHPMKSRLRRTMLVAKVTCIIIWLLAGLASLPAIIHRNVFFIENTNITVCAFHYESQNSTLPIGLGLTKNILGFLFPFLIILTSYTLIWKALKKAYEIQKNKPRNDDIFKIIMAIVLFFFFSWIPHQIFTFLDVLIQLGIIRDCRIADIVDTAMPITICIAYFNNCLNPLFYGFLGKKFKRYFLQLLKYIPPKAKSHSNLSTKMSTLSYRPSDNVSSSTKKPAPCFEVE

[2] = molecular target: T2, Type-1 angiotensin II receptor (Homo sapiens, UniProt P30556); assay: Antagonist activity at type-1 angiotensin 2 receptor (unknown origin) by calcium mobilizing assay; format: functional
T2 sequence (P30556 whole entry): T1 sequence (whole entry)

[3] = molecular target: T3, Peroxisome proliferator-activated receptor gamma (Homo sapiens) (UniProt P37231); assay: Agonist activity at PPARgamma (unknown origin) at 1 uM relative to telmisartan
T3 sequence (whole entry): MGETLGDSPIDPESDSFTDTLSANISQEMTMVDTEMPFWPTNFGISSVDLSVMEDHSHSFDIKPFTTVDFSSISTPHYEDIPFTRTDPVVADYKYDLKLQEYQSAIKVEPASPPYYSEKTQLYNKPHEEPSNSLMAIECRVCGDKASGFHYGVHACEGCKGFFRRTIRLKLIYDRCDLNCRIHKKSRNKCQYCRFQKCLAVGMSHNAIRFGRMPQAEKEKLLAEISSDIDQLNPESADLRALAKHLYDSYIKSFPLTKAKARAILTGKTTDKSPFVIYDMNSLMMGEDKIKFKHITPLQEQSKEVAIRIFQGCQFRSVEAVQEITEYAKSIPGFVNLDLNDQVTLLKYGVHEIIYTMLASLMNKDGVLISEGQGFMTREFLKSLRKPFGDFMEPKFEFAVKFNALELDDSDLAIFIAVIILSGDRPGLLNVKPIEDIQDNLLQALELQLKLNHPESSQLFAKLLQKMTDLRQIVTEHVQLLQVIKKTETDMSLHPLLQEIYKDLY

[4] = Cmax in rat at 10 mg/kg, po; format: ADME, organism-based; parameters: dose 10 mg/kg, route oral; conditions: in vivo
[5] = test system: Rattus norvegicus; assay: Antihypertensive activity in angiotensin 2 induced hypertension rat model assessed as time required for 50% reduction in blood pressure at 3 mg/kg, po; format: functional
[6] = AUClast in mouse at 20 mg/kg, po; format: ADME, organism-based; parameters: dose 20 mg/kg, route oral, time 0 - last; conditions: in vivo
[7] = test system: Rattus norvegicus; assay: Antihypertensive activity in angiotensin 2 induced hypertension rat model at 3 mg/kg, po measured until 8 hrs post dose; format: functional, organism-based
[8] = Tmax in rat at 10 mg/kg, po; format: ADME, organism-based; conditions: in vivo
[9] = Half life in rat at 10 mg/kg, po; format: ADME, organism-based; conditions: in vivo
[10] = Cmax in mouse at 20 mg/kg, po; format: ADME, organism-based; parameters: dose 20 mg/kg, route oral; conditions: in vivo
[11] = AUClast in rat at 10 mg/kg, po; format: ADME, organism-based; parameters: dose 10 mg/kg, route oral, time 0 - last; conditions: in vivo

Row | inhibition [1] | pIC50 [2] | Activity [3] | Compound | other results
1 | 9.5% |  |  | Cc1nc(C2CC2)n(Cc2ccc(-c3ccccc3-c3noc(=O)[nH]3)cc2)c(=O)c1CC(=S)N(C)C | 
2 |  | 8.25 | 83% | CCCCc1nc(C)c(CC(=S)N2CCOCC2)c(=O)n1Cc1ccc(-c2ccccc2-c2noc(=O)[nH]2)cc1 | 
3 |  | 8.35 | 0% | CCCCc1nc(C)c(CC(=S)N(C)C)c(=O)n1Cc1ccc(-c2ccccc2-c2nnn[nH]2)cc1 [FIMASARTAN] | Cmax [4]: 518 ng/mL; Time [5]: 22 h; AUC(0-t) [6]: 254 ng·h/mL; Activity [7]: Active; Tmax [8]: 7.8 min; half-life [9]: 3.6 h; Cmax [10]: 145 ng/mL; AUC(0-t) [11]: 1930 ng·h/mL
4 | 63% |  | 79% | CCCCc1nc(C2CC2)c(CC(=S)N2CCCC2)c(=O)n1Cc1ccc(-c2ccccc2-c2noc(=O)[nH]2)cc1 | 
5 |  | 8.68 | 122% | CCCCc1nc(C)c(CC(=S)N(C)CC(C)C)c(=O)n1Cc1ccc(-c2ccccc2-c2noc(=O)[nH]2)cc1 | 
6 |  | 8.80 | 120% | CCCCc1nc(C)c(CC(=S)N(C)C)c(=O)n1Cc1ccc(-c2ccccc2-c2noc(=O)[nH]2)cc1 | 
7 | 80% |  | 140% | CCCCc1nc(C)c(CC(=S)N(C)C)c(=O)n1Cc1ccc(-c2ccccc2C(=O)O)cc1 | 
8 |  | 7.42 | 116% | CCCCc1nc(C)c(CC(=S)N2CCCCC2)c(=O)n1Cc1ccc(-c2ccccc2-c2noc(=O)[nH]2)cc1 | 
9 |  | 7.49 | 100% | CCCCc1nc(C)c(CC(=S)N2Cc3ccccc3C2)c(=O)n1Cc1ccc(-c2ccccc2-c2noc(=O)[nH]2)cc1 | 
10 |  | 9.15 | 105% | CCCCc1nc(C)c(CC(=S)N2CCCC2)c(=O)n1Cc1ccc(-c2ccccc2-c2noc(=O)[nH]2)cc1 | 
